Tests used:
depression in man = conditions: racemate, Ref. A. Gravem et al. 1987; cited from earlier work
[1] = test system: effect of 5-HTP (5-HT syndrome); assay: 5-HTP-potentiation (5-HT syndrome in mice); format: in vivo; conditions: 5-HTP 100 mg/kg i.v. 30 minutes after test substance, log-probit analysis
Method: The test evaluates the ability of the substance to potentiate the effect of 5-HTP, which results in development of 5-HT syndrome (Christensen, Fjalland, Pedersen, Danneskiold-Samsoe and Svendsen; European J. Pharmacol. 41, 153-162, 1977).
Each treatment group consists of 3 mice, and two groups are treated with the highest test dose. A control group only treated with 5-HTP is included and a group treated with citalopram 10 mg/kg and 5-HTP is used as reference for full 5-HT syndrome.
30 minutes after the administration of the test substance, the other groups are given 5-HTP (100 mg/kg) i.v. (injection time 5-10 sec.). After this 5-HTP dose normal, untreated mice remain unaffected, but if the animals have been pretreated with a substance, which inhibits the uptake of 5-HT or a 5-HT agonist, a 5-HTP syndrome will occur. The symptoms are the same as previously described: (1) excitation, (2) tremor, and (3) abduction of the hind limbs. The animals are observed for 15 minutes and each animal is given one point for each symptom present. Again the result is stated in fractions: 0/9, 1/9, . . . 9/9, where 0, 1, . . . , 9 are the number of points per group after the dose in question. The ED50 value is calculated by log-probit analysis.

[2] = format: physicochemical
Method: A 2:1 addition compound of the (+)-isomer with L(+)-tartaric acid was prepared in the following manner: 4 g of the (+)-isomer as base were dissolved in 100 ml of diethyl ether and extracted into 100 ml of water containing 0.8 g of L(+)-tartaric acid by stirring. The organic phase was separated and discarded. The water-phase was freeze-dried in vacuo (<0.1 mm Hg) for 18 hours leaving 3.8 g of a white powder of the title compound.

## CN(C)CCCC1(c2ccc(F)cc2)OCc2cc(C#N)ccc21 (racemic) [(±)-citalopram, 1-(3-dimethylaminopropyl)-1-(4'-fluorophenyl)-1,3-dihydroisobenzofuran-5-carbonitrile, reference compound]
Depression in man
  antidepressant efficacy in man: efficient antidepressant compound in man
[1]; Mus musculus, iv, 0.5 h, read-out: 5-HTP pot. ED50
  ED50: 3.3 µmol/kg

## CN(C)CCCC1(c2ccc(F)cc2)OCc2cc(C#N)ccc21 (single isomer, unassigned) [2:1 addition compound of the (+)-isomer with L(+)-tartaric acid]
[2]
  stability: stable
[2]; freeze-dried white powder
  hygroscopicity: not hygroscopic

## CN(C)CCCC1(c2ccc(F)cc2)OCc2cc(C#N)ccc21 (single isomer, unassigned; (+)) [(+)-citalopram, (+)-1-(3-Dimethylaminopropyl)-1-(4'-fluorophenyl)-1,3-dihydroisobenzofuran-5-carbonitrile]
[1]
  5-HTP pot. ED50: 2.0 µmol/kg

## CN(C)CCCC1(c2ccc(F)cc2)OCc2cc(C#N)ccc21 (single isomer, unassigned; (-)) [(-)-citalopram, (-)-1-(3-dimethylaminopropyl)-1-(4'-fluorophenyl)-1,3-dihydroisobenzofuran-5-carbonitrile]
[1]
  5-HTP pot. ED50: 120 µmol/kg
